We go through 19 compounds from PMC6166404 (Journal of medicinal chemistry, 2018).

Test [1] relates to Mtb strain SRMV2.6 (MtbIMPDH2/Y487C). In kind it is cell-based, Mycobacterium tuberculosis.
For another test, the target named is MtbIMPDH2ΔCBS (Mycobacterium tuberculosis, UniProt P9WKI7, R252G). It is filed as biochemical. The following applies: for Ki: read-out: Ki,app MtbIMPDH2.
The next test has as its target MtbIMPDH2/Y487C (Mycobacterium tuberculosis, UniProt P9WKI7, Y487C). In kind it is biochemical.

Regarding `COc1ccc(OC(C)C(=O)Nc2ccc3oc(-c4ccncc4)nc3c2)cc1` (stereo not drawn) [Compound 1, reference compound], in test [1], the “MIC SRMV2.6” value is greater than 100 µM and the “susceptibility of strain SRMV2.6” value is on record as “resistant”. In the case of `COc1ccc(-c2nc3cc(NC(=O)[C@H](C)Oc4cccc(Cl)c4Cl)ccc3o2)cn1` [Compound 8c, (S)-2-(2,3-dichlorophenoxy)-N-(2-(6-methoxypyridin-3-yl)benzo[d]oxazol-5-yl)propanamide], the “fold increase in MtbIMPDH2ΔCBS inhibitory activity compared to 2” value on MtbIMPDH2ΔCBS was determined as 5 fold. Same read-out and setting: as for `COc1ccc(-c2nc3cc(NC(=O)[C@H](C)Oc4cccc(Cl)c4Cl)ccc3o2)cc1` [Compound 8d, (S)-2-(2,3-Dichlorophenoxy)-N-(2-(4-methoxyphenyl)benzo[d]oxazol-5-yl)propanamide], the figure is 7 fold; as for `C[C@H](Oc1cccc(Cl)c1Cl)C(=O)Nc1ccc2oc(-c3ccc(OC(F)(F)F)cc3)nc2c1` [Compound 8e, (S)-2-(2,3-Dichlorophenoxy)-N-(2-(4-(trifluoromethoxy)phenyl)benzo[d]oxazol-5-yl)propanamide], 7 fold.

With `C[C@H](Oc1cccc(Cl)c1Cl)C(=O)Nc1ccc2oc(-c3ccc(C#N)cc3)nc2c1` [Compound 8f, (S)-N-(2-(4-Cyanophenyl)benzo[d]oxazol-5-yl)-2-(2,3-dichlorophenoxy)propanamide], at MtbIMPDH2ΔCBS, the “fold increase in MtbIMPDH2ΔCBS inhibitory activity compared to 2” value is 7 fold. On to `C[C@H](Oc1cccc(Cl)c1Cl)C(=O)Nc1ccc2oc(-c3ccc(O)cc3)nc2c1` [Compound 8i, (S)-2-(2,3-Dichlorophenoxy)-N-(2-(4-hydroxyphenyl)benzo[d]oxazol-5-yl)propanamide], for which the “fold increase in MtbIMPDH2ΔCBS inhibitory activity compared to 2” value on MtbIMPDH2ΔCBS is given as 2 fold. For `COc1ccc(Cc2nc3cc(NC(=O)[C@H](C)Oc4cccc(Cl)c4Cl)ccc3o2)cc1` [Compound 15, (S)-2-(2,3-dichlorophenoxy)-N-(2-(4-methoxybenzyl)benzo[d]oxazol-5-yl)prop-anamide], the “factor of reduced activity compared to 8d” value on MtbIMPDH2ΔCBS is given as 6.

With `C[C@H](Nc1cccc(F)c1F)C(=O)Nc1ccc2oc(-c3ccc(C#N)cc3)nc2c1` [Compound 17b, (S)-N-(2-(4-Cyanophenyl)benzo[d]oxazol-5-yl)-2-((2,3-difluorophenyl)amino)propanamide], in test [1], the “MIC SRMV2.6” value is given as greater than 100 µM and the “susceptibility of strain SRMV2.6” value is listed as “resistant”. Moreover, the “Ratio Ki,app (Y487C) /Ki,app (WT)” value at MtbIMPDH2/Y487C stood at 60. Take `CCOC(=O)COc1ccc(-c2nc3cc(NC(=O)[C@H](C)Oc4cccc(Cl)c4Cl)ccc3o2)cc1` [Compound 18a, Ethyl (S)-2-(4-(5-(2-(2,3-dichlorophenoxy)propanamido)benzo[d]oxazol-2-yl)phenoxy)acetate]: the “susceptibility of strain SRMV2.6” value in test [1] is given as “remained sensitive”. As to `CCOC(=O)COc1cccc(-c2nc3cc(NC(=O)[C@H](C)Oc4cccc(Cl)c4Cl)ccc3o2)c1` [Compound 18b, Ethyl(S)-2-(3-(5-(2-(2,3-dichlorophenoxy)propanamido)benzo[d]oxazol-2-yl)phenoxy)acetate], the “fold loss in activity on translocating the alkoxy from para to meta position” value at MtbIMPDH2ΔCBS worked out at 4 fold. On the same count and under the same terms, as for `C[C@H](Oc1cccc(Cl)c1Cl)C(=O)Nc1ccc2oc(-c3cccc(OCC(=O)O)c3)nc2c1` [Compound 19b, (S)-2-(3-(5-(2-(2,3-Dichlorophenoxy)propanamido)benzo[d]oxazol-2-yl)phenoxy)acetic acid], the figure is 4 fold. With `C[C@H](Oc1cccc(Cl)c1Cl)C(=O)Nc1ccc2oc(-c3ccc(C(=O)O)cc3)nc2c1` [Compound 22, (S)-4-(5-(2-(2,3-Dichlorophenoxy)propanamido)benzo[d]oxazol-2-yl)benzoic acid], the “susceptibility of strain SRMV2.6” value in test [1] is reported as “remained sensitive”. As for `C[C@H](Oc1cccc(Cl)c1Cl)C(=O)Nc1ccc2oc(-c3ccc(C(=O)NN)cc3)nc2c1` [Compound 23, (S)-2-(2,3-Dichlorophenoxy)-N-(2-(4-(hydrazinecarbonyl)phenyl)benzo[d]oxazol-5-yl)propanamide], the “fold increase in activity on replacing the carboxylate” value at MtbIMPDH2ΔCBS fell in the range of 2 to 7 fold. On the same count and under the same terms, with `C[C@H](Oc1cccc(Cl)c1Cl)C(=O)Nc1ccc2oc(-c3ccc(-c4n[nH]c(=O)o4)cc3)nc2c1` [Compound 24, (S)-2-(2,3-Dichlorophenoxy)-N-(2-(4-(5-oxo-4,5-dihydro-1,3,4-oxadiazol-2-yl)phenyl)benzo[d]oxazol-5-yl)propanamide] the figure was 2 to 7 fold; with `C[C@H](Oc1cccc(Cl)c1Cl)C(=O)Nc1ccc2oc(-c3ccc(/C(N)=N\O)cc3)nc2c1` [Compound 25, (S,Z)-2-(2,3-Dichlorophenoxy)-N-(2-(4-(N’-hydroxycarbamimidoyl)phenyl)benzo[d]oxazol-5-yl)propanamide], 2 to 7 fold. On the same count and under the same terms, as for `C[C@H](Oc1cccc(Cl)c1Cl)C(=O)Nc1ccc2oc(-c3ccc(-c4noc(=O)[nH]4)cc3)nc2c1` [Compound 26, (S)-2-(2,3-Dichlorophenoxy)-N-(2-(4-(5-oxo-4,5-dihydro-1,2,4-oxadiazol-3-yl)phenyl)benzo-[d]oxazol-5-yl)propanamide], the figure is 2 to 7 fold; as for `C[C@H](Oc1cccc(Cl)c1Cl)C(=O)Nc1ccc2oc(-c3ccc(C(N)=O)cc3)nc2c1` [Compound 28, (S)-4-(5-(2-(2,3-Dichlorophenoxy)propanamido)benzo[d]oxazol-2-yl)benzamide], 2 to 7 fold. Take “(S)-2-(2,3-Dichlorophenoxy)-N-(2-(2-methoxypyridin-4-yl)benzo[d]oxazol-5-yl)propanamide [Compound 8b]”: on MtbIMPDH2ΔCBS, the “fold increase in MtbIMPDH2ΔCBS inhibitory activity compared to 2” value is 5 fold and the Ki is 12 ± 0.1 nM. On to “(S)-2-(2,3-Dichlorophenoxy)-N-(2-(2-oxo-1,2-dihydropyridin-4-yl)benzo[d]oxazol-5-yl)propanamide [Compound 30]”, for which, at MtbIMPDH2ΔCBS, the “fold reduction of MtbIMPDH2ΔCBS inhibitory activity compared to 2” value is listed as 3 fold and the Ki was 220 ± 6 nM.
